Results reported in patent US7709482B2, “Polycyclic heteroaryl substituted triazoles useful as Axl inhibitors” (Rigel Pharmaceuticals, Inc., priority 2006, dated 2010).

Target: T1, Axl (Homo sapiens, UniProt P30530)
T1 construct: endogenous in cells; host or cells: HeLa cells
T1 sequence (P30530 26-894): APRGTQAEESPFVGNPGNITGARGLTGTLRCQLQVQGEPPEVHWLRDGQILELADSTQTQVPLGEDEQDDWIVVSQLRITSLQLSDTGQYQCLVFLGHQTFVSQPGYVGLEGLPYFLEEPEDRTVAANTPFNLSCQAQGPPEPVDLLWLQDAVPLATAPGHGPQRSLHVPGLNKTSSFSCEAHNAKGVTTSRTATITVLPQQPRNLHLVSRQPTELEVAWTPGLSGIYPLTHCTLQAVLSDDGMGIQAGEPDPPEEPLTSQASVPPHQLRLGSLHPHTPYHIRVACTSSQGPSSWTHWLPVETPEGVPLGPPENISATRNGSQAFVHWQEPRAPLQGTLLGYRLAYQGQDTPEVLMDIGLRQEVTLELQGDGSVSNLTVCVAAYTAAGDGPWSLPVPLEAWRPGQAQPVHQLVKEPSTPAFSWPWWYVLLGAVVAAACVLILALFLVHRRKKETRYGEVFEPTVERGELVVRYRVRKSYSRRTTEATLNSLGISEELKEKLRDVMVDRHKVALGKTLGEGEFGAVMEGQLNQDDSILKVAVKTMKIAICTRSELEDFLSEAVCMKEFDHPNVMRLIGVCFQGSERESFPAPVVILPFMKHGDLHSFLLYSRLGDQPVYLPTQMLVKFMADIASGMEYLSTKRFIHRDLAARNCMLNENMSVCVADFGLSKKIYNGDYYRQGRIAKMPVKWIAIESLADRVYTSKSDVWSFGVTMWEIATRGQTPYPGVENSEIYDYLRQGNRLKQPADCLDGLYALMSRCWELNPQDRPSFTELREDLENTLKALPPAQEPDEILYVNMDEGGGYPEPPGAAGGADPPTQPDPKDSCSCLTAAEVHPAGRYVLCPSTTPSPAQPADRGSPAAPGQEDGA
Assay: Phospho-Akt In-Cell Western Assay (inhibition of Axl activity after Axl-antibody cross-linking)
Assay type: cell-based
Conditions: not given
Summary of the method: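 HeLa cells on poly-L-lysine, starved 24 h in 0.5% FCS DMEM with Axl/Fc 500 ng/mL, pre-treated with compound 1 h at 37 °C, then stimulated 5 min by anti-Axl/anti-mouse antibody cross-linking. Fixed cells probed for phospho-Akt with HRP secondary and chemiluminescent detection.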

Row | SMILES | IC50 [nM]
1 | Nc1nc(Nc2ccc(N3C4CCC3CC(N3CCCC3)C4)c(F)c2)nn1-c1cc2c(nn1)-c1ccccc1CCC2 (stereo not drawn) [Compound 76, 1-(6,7-dihydro-5H-benzo[6,7]cyclohepta[1,2-c]pyridazin-3-yl)-N^3-(3-fluoro-4-(3-(pyrrolidin-1-yl)-8-azabicyclo[3.2.1]oct-8-yl)phenyl)-1H-1,2,4-triazole-3,5-diamine] | < 1000

Same assay, conditions: Hela cells, phospho-Akt chemiluminescence normalized to relative cell number; compounds of formula (Ia), Table 1; read-out: IC50

Row | IC50 [nM] | SMILES
2 | 1000 to 10000 | COc1cc2c(cc1OC)-c1nnc(-n3nc(Nc4ccc(N5CCC(N6CCCC6)CC5)c(F)c4)nc3N)cc1CCC2 [Compound 64, 1-(6,7-dihydro-5H-9,10-dimethoxybenzo[6,7]cyclo-hepta[1,2-c]pyridazin-3-yl)-N^3-(3-fluoro-4-(4-pyrrolidin-1-yl-piperidin-1-yl)phenyl)-1H-1,2,4-triazole-3,5-diamine]
3 | < 1000 | Nc1nc(Nc2ccc(N3CCC(N4CCCC4)CC3)c(F)c2)nn1-c1cc2c(nn1)-c1ccccc1SCC2 [Compound 119, 1-(6,7-dihydro-5H-benzo[2,3]thiepino[4,5-c]pyridazin-3-yl)-N^3-(3-fluoro-4-(4-pyrrolidin-1-ylpiperidinyl)phenyl)-1H-1,2,4-triazole-3,5-diamine]
4 | < 1000 | CN1CCc2ncc(Nc3nc(N)n(-c4cc5c(nn4)-c4ccccc4CCC5)n3)cc2C1 [Compound 28, 1-(6,7-dihydro-5H-benzo[6,7]cyclohepta[1,2-c]pyridazin-3-yl)-N^3-(6-methyl-5,6,7,8-tetrahydro-1,6-naphthyridin-3-yl)-1H-1,2,4-triazole-3,5-diamine]
5 | < 1000 | CC1CCN(C2CCN(c3ccc(Nc4nc(N)n(-c5cc6c(nn5)-c5ccccc5CCC6)n4)cc3F)CC2)CC1 [Compound 59, 1-(6,7-dihydro-5H-benzo[6,7]cyclohepta[1,2-c]pyridazin-3-yl)-N^3-(3-fluoro-4-(4-(4-methylpiperidin-1-yl)piperidin-1-yl)phenyl)-1H-1,2,4-triazole-3,5-diamine]
6 | 1000 to 10000 | CN(C1CCc2ccc(Nc3nc(N)n(-c4cc5c(nn4)-c4ccccc4CCC5)n3)cc2CC1)C1CC2CCC1C2 (stereo not drawn) [Compound 24, 1-(6,7-dihydro-5H-benzo[6,7]cyclohepta[1,2-c]pyridazin-3-yl)-N^3-(7-((bicyclo[2.2.1]heptan-2-yl)(methyl)amino)-6,7,8,9-tetrahydro-5H-benzo[7]annulene-2-yl)-1H-1,2,4-triazole-3,5-diamine]

Row | SMILES | IC50 [nM]
7 | Nc1nc(Nc2ccc(N3CC4CN(C5CCCC5)CC4C3)c(F)c2)nn1-c1cc2c(nn1)-c1ccccc1CCC2 (stereo not drawn) [Compound 75, 1-(6,7-dihydro-5H-benzo[6,7]cyclohepta[1,2-c]pyridazin-3-yl)-N^3-(3-fluoro-4-(5-cyclopentyloctahydro-pyrrolo[3,4-c]pyrrolyl)phenyl)-1H-1,2,4-triazole-3,5-diamine] | < 1000

Same assay, conditions: Hela cells, phospho-Akt chemiluminescence normalized to relative cell number; compounds of formula (Ib), Table 2; read-out: IC50

Row | IC50 [nM] | SMILES
8 | 1000 to 10000 | Nc1nc(Nc2ccc3c(c2)CNCC3)n(-c2cc3c(nn2)-c2ccccc2CCC3)n1 [Compound 243, 1-(6,7-dihydro-5H-benzo[6,7]cyclohepta[1,2-c]pyridazin-3-yl)-N^5-(1,2,3,4-tetrahydroisoquinolin-7-yl)-1H-1,2,4-triazole-3,5-diamine]
9 | > 20000 | Nc1nc(Nc2ccc(N3CCC(N4CCOCC4)CC3)c(F)c2)n(-c2cc3c(nn2)-c2ccccc2CCC3)n1 [Compound 158, 1-(6,7-dihydro-5H-benzo[6,7]cyclohepta[1,2-c]pyridazin-3-yl)-N^5-(3-fluoro-4-(4-(morpholin-4-yl)piperidin-1-yl)phenyl)-1H-1,2,4-triazole-3,5-diamine]
10 | 1000 to 10000 | CN1CCC2(CCN(c3ccc(Nc4nc(N)nn4-c4cc5c(nn4)-c4ccccc4CCC5)cc3F)C2)C1 (stereo not drawn) [Compound 169, 1-(6,7-dihydro-5H-benzo[6,7]cyclohepta[1,2-c]pyridazin-3-yl)-N^5-(3-fluoro-4-(7-methyl-2,7-diazaspiro[4.4]nonan-2-yl)phenyl)-1H-1,2,4-triazole-3,5-diamine]

Same assay, conditions: inhibition of Axl activity; Table 1, compounds of formula (Ia); read-out: IC50

Row | IC50 [nM] | SMILES
11 | < 1000 | CCN(CC)C1CCN(CC=Cc2ccc(Nc3nc(N)n(-c4cc5c(nn4)-c4ccccc4CCC5)n3)cc2)C1 (stereo not drawn) [Compound 201, 1-(6,7-dihydro-5H-benzo[6,7]cyclohepta[1,2-c]pyridazin-3-yl)-N^3-(4-(3-diethylaminopyrrolidin-1-ylprop-1-enyl)phenyl)-1H-1,2,4-triazole-3,5-diamine]
12 | < 1000 | CN1CCN(C2CCc3ccc(Nc4nc(N)n(-c5cc6c(nn5)-c5ccccc5CCC6)n4)cc3CC2)CC1 (stereo not drawn) [Compound 227, 1-(6,7-dihydro-5H-benzo[6,7]cyclohepta[1,2-c]pyridazin-3-yl)-N^3-(7-(4-methylpiperazin-1-yl)-6,7,8,9-tetrahydro-5H-benzo[7]annulene-2-yl)-1H-1,2,4-triazole-3,5-diamine]
13 | < 1000 | Nc1nc(Nc2ccc3c(c2)CCC(NC2CCCC2)CC3)nn1-c1cc2c(nn1)-c1ccccc1CCC2 (stereo not drawn) [Compound 186, 1-(6,7-dihydro-5H-benzo[6,7]cyclohepta[1,2-c]pyridazin-3-yl)-N^3-(7-cyclopentylamino-6,7,8,9-tetrahydro-5H-benzo[7]annulene-2-yl)-1H-1,2,4-triazole-3,5-diamine]
14 | < 1000 | CN(C)C1CCN(CC=Cc2ccc(Nc3nc(N)n(-c4cc5c(nn4)-c4ccccc4CCC5)n3)cc2)C1 (stereo not drawn) [Compound 200, 1-(6,7-dihydro-5H-benzo[6,7]cyclohepta[1,2-c]pyridazin-3-yl)-N^3-(4-(3-dimethylaminopyrrolidin-1-ylprop-1-enyl)phenyl)-1H-1,2,4-triazole-3,5-diamine]
15 | < 1000 | Nc1nc(Nc2ccc(C3CCN(C4CC5CCC4C5)CC3)cc2)nn1-c1cc2c(nn1)-c1ccccc1SCC2 (stereo not drawn) [Compound 236, 1-(6,7-dihydro-5H-benzo[2,3]thiepino[4,5-c]pyridazin-3-yl)-N^3-(4-(1-bicyclo[2.2.1]heptan-2-yl)-piperidin-4-ylphenyl)-1H-1,2,4-triazole-3,5-diamine]
16 | < 1000 | C[C@@H]1CCCN1C1CCc2ccc(Nc3nc(N)n(-c4cc5c(nn4)-c4ccccc4CCC5)n3)cc2CC1 (stereo partly drawn) [Compound 220, 1-(6,7-dihydro-5H-benzo[6,7]cyclohepta[1,2-c]pyridazin-3-yl)-N^3-(7-(2-(R)-methylpyrrolidin-1-yl)-6,7,8,9-tetrahydro-5H-benzo[7]annulene-2-yl)-1H-1,2,4-triazole-3,5-diamine]
17 | 10000 to 20000 | Nc1nc(Nc2ccc(N3CCN(C4CCCCC4)CC3)c(F)c2)nn1-c1cc(-c2ccccc2)c2c(n1)-c1ccccc1CCC2 [Compound 192, 1-(4-phenyl-6,7-dihydro-5H-benzo[6,7]cyclohepta[1,2-b]pyridin-2-yl)-N^3-(3-fluoro-4-(4-cyclohexylpiperazin-1-yl)phenyl)-1H-1,2,4-triazole-3,5-diamine]
18 | 1000 to 10000 | Nc1nc(Nc2ccc3c(c2)CCC(N2CCC[C@H]2C(=O)O)CC3)nn1-c1cc2c(nn1)-c1ccccc1CCC2 (stereo partly drawn) [Compound 195, 1-(6,7-dihydro-5H-benzo[6,7]cyclohepta[1,2-c]pyridazin-3-yl)-N^3-((7-(2-(S)-carboxy)pyrrolidin-1-yl)-6,7,8,9-tetrahydro-5H-benzo[7]annulene-2-yl)-1H-1,2,4-triazole-3,5-diamine]
19 | < 1000 | CN1CCN(C2CCN(C/C=C/c3ccc(Nc4nc(N)n(-c5cc6c(nn5)-c5ccccc5CCC6)n4)cn3)CC2)CC1 [Compound 135, 1-(6,7-dihydro-5H-benzo[6,7]cyclohepta[1,2-c]pyridazin-3-yl)-N^3-(6-(3-(4-(N-methylpiperazin-4-yl)piperidin-1-yl)-(E)-propenyl)pyridin-3-yl)-1H-1,2,4-triazole-3,5-diamine]
20 | < 1000 | Nc1nc(Nc2cnc3c(c2)CC[C@H](N2CCCC2)CC3)nn1-c1cc2c(nn1)-c1ccccc1CCC2 [Compound 191, 1-(6,7-dihydro-5H-benzo[6,7]cyclohepta[1,2-c]pyridazin-3-yl)-N^3-((S)-7-(pyrrolidin-1-yl)-6,7,8,9-tetrahydro-5H-cyclohepta[b]pyridine-3-yl)-1H-1,2,4-triazole-3,5-diamine]
21 | 1000 to 10000 | CN(C)CCN1CCN(C(=O)c2cc3cc(Nc4nc(N)n(-c5cc6c(nn5)-c5ccccc5SCC6)n4)ccc3s2)CC1 [Compound 131, 1-(6,7-dihydro-5H-benzo[2,3]thiepino[4,5-c]pyridazin-3-yl)-N^3-(2-(1-(4-(2-(dimethylamino)ethyl)-piperazin-1-yl)oxomethyl)benzo[b]thio-phen-5-yl)-1H-1,2,4-triazole-3,5-diamine]
